From patent US5767113A, “Compounds useful for concurrently activating glucocorticoid-induced response and reducing multidrug resistance” (The Salk Institute For Biological Studies, priority 1995, dated 1998) come the findings set out here.

Experiment [1] deals with S7dexΓ -1 cells. In words: Reversal of puromycin resistance in the S7dex-1 cell line (turbidity at 660 nm). Type of experiment: cell-based, murine. The text has this: I. Reversal of Puromycin Resistance in the S7dexΓ -1 Cell Line
The S7dexΓ- 1 cell line is a glucocorticoid resistant derivative of the S7CD-5 cell line. It was selected on the basis of its resistance to the glucocorticoid agonist triamcinolone acetonide (5×10^-7 M) from S7CD-5 cells that had been mutagenized with N-methyl-N'-nitro-N-nitrosoguanidine. The apoptic response to glucocorticoid agonists is not elicited in the S7dexΓ -1 cells. Thus, murine S7dexΓ -1 cells were distributed (5×10^4cells/ml, 1 ml/well) into multiwell dishes and incubated for 5 days with 20 μM puromycin and increasing concentrations of test compound. At the end of the incubation period, the turbidity values (at 660 nm) for each set of cultures were measured and expressed relative to cells that were incubated without test compound. These values represent the ability of test compound to reverse S7dexΓ -1 resistance to 20 μM puromycin, as reflected by the relative amount of cell proliferation under a given set of growth conditions. The number of repetitions of each value presented in the first data column of Table 1 are indicated in parenthesis after each entry. In the Table, the ED50 values reflect the concentration of chemosensitizer that causes the Relative Turbidity value to be reduced by 50%.

The subject of experiment [2] is CEM/VLB100 cells. In words: Reversal of vinblastine resistance in the CEM/VLB100 cell line (turbidity at 660 nm). The format is cell-based, human. As for the experimental part:
(§1) Human CEM/VLB100 cells were distributed (5×10^4 cells/ml, 1 ml/well) into multiwell dishes and incubated for 5 days with 30 nM vinblastine and increasing concentrations of test compound, as indicated in the Figure. At the end of the incubation period, the turbidity values (at 660 nm) for each set of cultures were measured and expressed relative to cells that were incubated without test compound. These values represent the ability of test compound, relative to control (i.e., verapamil) to reverse CEM/VLB100 resistance to 30 nM vinblastine, as reflected by the relative amount of cell proliferation under a given set of growth conditions. Each value shown in the Figures is the average of 2 separate determinations.
II. Reversal of Vinblastine Resistance in the CEM/VLB100 Cell Line
as §1, with “The CEM/VLB100 cell line is a derivative of human CEM cells, selected for resistance to vinblastine. This cell line expresses the human MDR1 gene.” for “Human”, “FIG. 2.” for “the Figure.”, “compound” for “compound, relative to control (i.e., verapamil)”, “FIG. 2” for “the Figures”, “determinations. Results are also presented in the second data column of Table 1, wherein the ED50 values reflect the concentration of chemosensitizer that causes the Relative Turbidity value to be reduced by 50%.” for “determinations.”

Experiment [3] has as its system murine thymoma W7TB cells. In words: Glucocorticoid agonist activity: glucocorticoid-induced apoptosis of murine thymoma W7TB cells (turbidity at 660 nm). The format is cell-based. The conditions noted are these: Mus musculus, 120 h, 5 days, agonist concentration that reduces Relative Turbidity to 50%, read-out: LD50 ^3. As for the experimental part:
FIG. 1 presents the results of an evaluation of the glucocorticoid agonist activity of several steroid analogs. The glucocorticoid-induced apoptosis of murine thymoma W7TB cells was taken as a measure of the agonist activity of steroid analogs. Murine W7TB cells were distributed (5×10^4 cells/ml/well) into multiwell dishes and incubated for 5 days with increasing concentrations of test compound, as indicated in the Figure. At the end of the incubation period, the turbidity values (at 660 nm) for each set of cultures were measured and expressed relative to cells that were incubated without test compound. These values represent the effect of test compound on the relative amount of cell proliferation under a given set of growth conditions. Each value shown in the Figures is the average of 2 separate determinations.
The glucocorticoid agonist activity of several steroid analogs was evaluated by determining the glucocorticoid-induced apoptosis of murine thymoma W7TB cells. Thus, murine W7TB cells were distributed (5×10^4 cells/ml/well) into multiwell dishes and incubated for 5 days with increasing concentrations of test compound, as indicated in FIG. 1. Dichlorisone is 1,4-pregnadiene-9α, 11β-dichloro-17α-21-diol-3,20-dione; "SA 44" is the 3,4-dimethoxy benzoic acid ester of dichlorisone; and "SA 47" is the 4-dimethylamino benzoic acid ester of dichlorisone. "17-DOD" is 17-deoxydexamethasone (i.e., 1,4-pregnadien-9α-fluoro-16αmethyl-11β,21-diol-3,20-dione); "SA 45" is the 4-dimethylamino benzoic acid ester of 17-DOD; and "SA 54" is the N-benzylcarbamate of 17-DOD.
At the end of the incubation period, the turbidity values (at 660 nm) for each set of cultures were measured and expressed relative to cells that were incubated without test compound. These values represent the effect of test compound on the relative amount of cell proliferation under a given set of growth conditions. Each value shown in FIGS. 1A and 1B is the average of 2 separate determinations. Results are also presented in the third data column of Table 1, wherein LD50 values reflect the agonist concentration that causes the Relative Turbidity value to be reduced to 50%.

Where [4] appears, read: S7dex1 cells, 5 days with 20 μM puromycin; chemosensitizer concentration that reduces Relative Turbidity by 50%; read-out: ED50 ^1.
Setting [5] is: 5 days with 30 nM vinblastine, chemosensitizer concentration that reduces Relative Turbidity by 50%, read-out: ED50 ^2.
Setting [6] is: read-out: ED50 ^1; S7dex1 cells, 5 days with 20 μM puromycin; chemosensitizer concentration that reduces Relative Turbidity by 50%.
[7] abbreviates: read-out: ED50 ^2, 5 days with 30 nM vinblastine, chemosensitizer concentration that reduces Relative Turbidity by 50%.

Structures are written as SMILES. Where two headings read alike, the source gives them in different places. A value given as a limit tells only on which side of the number the result lay.

For the compound `COc1ccc(C(=O)OCC(=O)[C@@]2(O)CC[C@H]3[C@@H]4CCC5=CC(=O)C=C[C@]5(C)[C@@]4(Cl)[C@@H](Cl)C[C@@]32C)cc1OC` [SA 44, 1,4-Pregnadien-9α11β-dichloro-17α,21-diol-3,20-dione, 21-(3,4-dimethoxybenzoate)], the IC50 in experiment [1] (setting [4]) worked out at 440 nM; in experiment [2] (setting [5]), 2500 nM; in experiment [3], 14 nM.

In the case of `C[C@@H]1C[C@H]2[C@@H]3CCC4=CC(=O)C=C[C@]4(C)[C@@]3(F)[C@@H](O)C[C@]2(C)[C@H]1C(=O)COC(=O)c1ccc(N(C)C)cc1` [SA 45, 1,4-Pregnadien-9α-fluoro-16αmethyl-11β,21-diol-3 20-dione, 21-(4-dimethylaminobenzoate)], the IC50 was 360 nM in experiment [1] (setting [4]), 2700 nM in experiment [2] (setting [5]) and 34 nM in experiment [3].

`CC(=O)[C@H]1CC[C@H]2[C@@H]3CCC4=CC(=O)CC[C@]4(C)[C@H]3CC[C@]12C` [Progesterone, reference compound]: the IC50 in experiment [1] (setting [4]) is 1600 nM; in experiment [2] (setting [5]) it was > 8000 nM; in experiment [3] it was 2400 nM.

As for `C[C@]12C=CC(=O)C=C1CC[C@H]1[C@@H]3CC[C@](O)(C(=O)CO)[C@@]3(C)C[C@H](Cl)[C@@]12Cl` [Dichlorisone, 1,4-pregnadiene-9α,11β-dichloro-17α-21-diol-3,20-dione, reference compound], the values for the IC50 in experiment [1] (setting [6]), in experiment [2] (setting [7]) and in experiment [3] were > 8000 nM, > 8000 nM and 7.5 nM, respectively.

Consider `C[C@@H]1C[C@H]2[C@@H]3CCC4=CC(=O)C=C[C@]4(C)[C@@]3(F)[C@@H](O)C[C@]2(C)[C@H]1C(=O)CO` [17-DOD, 1,4-Pregnadien-9α-fluoro-16α-methyl-11β,21-diol-3, 20-dione, reference compound], for which the values for the IC50 in experiment [1] (setting [4]), in experiment [2] (setting [5]) and in experiment [3] were 2700 nM, > 8000 nM and 5.3 nM, respectively.

Turning to `COc1ccc(C(=O)OCC(=O)[C@H]2[C@H](C)C[C@H]3[C@@H]4CCC5=CC(=O)C=C[C@]5(C)[C@@]4(F)[C@@H](O)C[C@@]32C)cc1OC` [SA 43, 1,4-Pregnadien-9α-fluoro-16α-methyl-11β,21-diol-3,20-dione,21-(3 ,4-dimethoxybenzoate)], the IC50 in experiment [2] (setting [5]) was 1200 nM; in experiment [3], 18 nM.

Consider `CC(=O)[C@H]1[C@H](C)C[C@H]2[C@@H]3CCC4=CC(=O)C=C[C@]4(C)[C@@]3(F)[C@@H](O)C[C@@]21C` [SA 50, 1,4-Pregnadien-9αfluoro-16αmethyl-11β-ol-3 20-dione], for which the IC50 is 530 nM in experiment [1] (setting [4]), > 8000 nM in experiment [2] (setting [5]) and 9 nM in experiment [3].

Consider `C[C@@H]1C[C@H]2[C@@H]3CCC4=CC(=O)C=C[C@]4(C)[C@@]3(F)[C@@H](O)C[C@]2(C)[C@H]1C(=O)COC(=O)NCc1ccccc1` [SA 54, 1,4-Preqnadien-9αfluoro-16αmethyl-11β,21-diol-3 20-dione, 21-(N-benzylcarbamate)], for which the IC50 came out at 420 nM in experiment [1] (setting [4]), 1800 nM in experiment [2] (setting [5]) and 250 nM in experiment [3].

Regarding `COc1ccc(CCN(C)CCCC(C#N)(c2ccc(OC)c(OC)c2)C(C)C)cc1OC` (stereo not shown) [Verapainil, verapamil, reference compound], the IC50 in experiment [1] (setting [6]) came out at 760 nM; in experiment [2] (setting [7]), 1300 nM.

In the case of `CN(C)c1ccc(C(=O)OCC(=O)[C@@]2(O)CC[C@H]3[C@@H]4CCC5=CC(=O)C=C[C@]5(C)[C@@]4(Cl)[C@@H](Cl)C[C@@]32C)cc1` [SA 47, 1,4-Pregnadien-9α,11β-dichloro-17α,21-diol-3,20-dione, 21-(4-dimethylaminogenzoate)], the IC50 is 450 nM in experiment [1] (setting [4]), 1100 nM in experiment [2] (setting [5]) and 13 nM in experiment [3].
